In brackets after ≈: the same amount, converted by molar mass.
Experiments:
Format in all cases: cell-based
C. freundii 104 [1] = assay: Conventional AST method using absorbance at 620 nm; conditions: Citrobacter freundii, 4 hrs and 16 hrs, breakpoint 400
Description: The monochromatic method of spectral analysis involves selecting a single wavelength that contains a unique spectral feature for the analyte of interest. In the conventional method, the analyte is turbidity and its measurement at 620 nm wavelength is used to quantify growth. The current conventional AST method determines growth by comparing the calculated processed value, which is the 620 nm absorbance difference between two (2) hours and forty-five minutes and 16 or 18 hours against a breakpoint. This breakpoint was determined by testing 100-200 isolates and reading results manually or via instruments and correlating the reads of those isolates to their processed values. This approach has limited capability because the processed value is not corrected for system-dependent variations and the breakpoint is not adaptable to system change. […] (see, e.g., Dried Gram Negative Procedural Manual, supra, at page 1 (and references cited therein).) Appropriate specimens should be collected, transported, and placed on primary isolation media according to procedures recommended in the Manual of Clinical Microbiology (Murray, et al. (eds.), Manual of Clinical Microbiology, 6th ed., American Society for Microbiology, Washington, D.C. (1995)). Subsequently, a standard, automated assay may thus be conducted essentially as follows.

C. freundii 104 [2] = assay: New AST method using bichromatic absorbance between 405 and 620 nm; conditions: for Susceptibility Index (D6 − C6)/(D3 − C3): 6 hrs vs 3 hrs
Text: (§1) The goals of the new AST method are to achieve higher precision, greater accuracy and increased reliability by using (1) quantitative spectral information derived from bichromatic measurements, (2) a dynamic breakpoint for individual drug wells based on their initial condition, and (3) a susceptibility index for determining susceptibility. The new AST method includes the following processes.
(§2) Bichromatic absorbance is the difference between the primary wavelength with significant turbidity and the secondary wavelength with little turbidity. For Gram positive organisms, the wavelengths are 505 and 620 for all drugs.
(§3) For Gram negative organisms, the wavelengths are 405 and 620 nm for most drugs except Nitrofurantoin and tetracycline. The wavelengths for Nitrofurantoin and tetracycline are 505 and 620 nm.
(§4) The susceptibility index (SI) is the ratio of the initial and final absorbance after correction for system drift. The susceptibility indexes are calculated for each drug well and the growth well (positive control well). The following formula (equation 1) is used to calculate the susceptibility index:
(§5) where • Di=Initial bichromatic absorbance from drug well • Df=Final bichromatic absorbance from drug well • Ci=Initial bichromatic absorbance from control ([…]) well • Cf=Final bichromatic absorbance from control (negative control) well
(§6) Compare susceptibility indices from drug wells to determine growth/no growth. A value of 1.05 is presently preferred for use as a cutoff to determine growth. The value may be adjusted as assay procedures undergo further refinement but is nonetheless expected to retain a value approaching 1.
(§7) In the current conventional MIC methods used in many art-recognized systems, the MIC is the first no growth well after the last growth well in the dilution series. Difficulties in interpretation occur, however, when there are “no growth” wells interspersed amongst “growth” wells in the same series. Conventional methods treat these no growth wells as “skipped” wells and the MIC is adjusted according to the number of skipped wells. In the methods and systems of the invention, however, an algorithm is applied which more accurately identifies which wells are true skipped wells. In addition, the algorithm is applied to determine which wells are contaminated. Use of the new system increases the accuracy of the read substantially.

C. freundii 104 [3] = assay: Manual read MIC; conditions: Citrobacter freundii; C. freundii 104, manual read
Text: (§8) (see, e.g., Dried Gram Negative Procedural Manual, supra, at page 1 (and references cited therein).) Appropriate specimens should be collected, transported, and placed on primary isolation media according to procedures recommended in the Manual of Clinical Microbiology (Murray, et al. (eds.), Manual of Clinical Microbiology, 6th ed., American Society for Microbiology, Washington, D.C. (1995)). Subsequently, a standard, automated assay may thus be conducted essentially as follows.
(§9) The panels may be read manually (e.g. using a MICROSCAN® Microdilution Viewer, Dade MicroScan Inc., West Sacramento, Calif.) and results recorded on an appropriate worksheet. The panels may also—or alternatively—be read instrumentally, e.g., using a TOUCHSCAN®-SR, AUTOSCAN®-4, or WALKAWAY® system (Dade MicroScan Inc., West Sacramento, Calif.). Refer to the appropriate operator's manual for reading panels using instrumentation.

C. freundii 87 [4] = assay: Conventional AST method using absorbance at 620 nm; conditions: Citrobacter freundii, 3 hrs and 16 hrs, breakpoint 1800
Description: In the conventional method, the analyte is turbidity and its measurement at 620 nm wavelength is used to quantify growth. The current conventional AST method determines growth by comparing the calculated processed value, which is the 620 nm absorbance difference between two (2) hours and forty-five minutes and 16 or 18 hours against a breakpoint. This breakpoint was determined by testing 100-200 isolates and reading results manually or via instruments and correlating the reads of those isolates to their processed values. […] Subsequently, a standard, automated assay may thus be conducted essentially as follows.

C. freundii 87 [5] = assay: New AST method using bichromatic absorbance between 405 and 620 nm
Text: as §1, §2, §3, §4, §5, §6, §7

C. freundii 87 [6] = assay: Manual read MIC; conditions: Citrobacter freundii; C. freundii 87, manual read
Text: as §8, §9

[7] = Citrobacter freundii, bichromatic 405-620 nm, 3 hrs and 6 hrs

Question: How did the MIC (C. freundii 104 [1]) turn out when NC[C@H]1O[C@H](O[C@H]2[C@H](O)[C@@H](O[C@H]3O[C@H](CO)[C@@H](O)[C@H](N)[C@H]3O)[C@H](N)C[C@@H]2N)[C@H](N)C[C@@H]1O [Tobramycin] was run?
Answer: Its MIC is 2 µg/mL (≈ 4.28 µM).

Question: And the MIC (C. freundii 104 [2]; [7])?
Answer: Its MIC is 2 µg/mL (≈ 4.28 µM).

Question: And the “Susceptibility Index (D6 − C6)/(D3 − C3)” value (C. freundii 104 [2]; drug level 0.5 μg/mL)?
Answer: The value was 3696/1205 = 3.0.

Question: And the “Susceptibility Index (D6 − C6)/(D3 − C3)” value (C. freundii 104 [2]; drug level 1 μg/mL)?
Answer: Its value is 1898/1201 = 1.6.

Question: What about the “Susceptibility Index (D6 − C6)/(D3 − C3)” value (C. freundii 104 [2]; drug level 2 μg/mL) of the same compound?
Answer: Its value is 1145/1180 = 1.0.

Question: And the “Susceptibility Index (D6 − C6)/(D3 − C3)” value (C. freundii 104 [2]; drug level 4 μg/mL)?
Answer: The value was 1096/1136 = 1.0.

Question: And the “Susceptibility Index (D6 − C6)/(D3 − C3)” value (C. freundii 104 [2]; drug level 8 μg/mL)?
Answer: The value was 1196/1237 = 1.0.

Question: And the MIC (C. freundii 104 [3])?
Answer: The MIC was 2 µg/mL (≈ 4.28 µM).

Question: How did the MIC (C. freundii 87 [4]) turn out when Cc1cc(NS(=O)(=O)c2ccc(N)cc2)no1 [Sulfamethoxazole] was run?
Answer: The MIC was under 256 µg/mL.

Question: And the MIC (C. freundii 87 [5]; [7])?
Answer: Its MIC is over 256 µg/mL.

Question: And the “Susceptibility Index (D6 − C6)/(D3 − C3)” value (C. freundii 87 [5]; drug level 256 μg/mL, 6 hrs vs 3 hrs)?
Answer: Its value is 1639/1064 = 1.5.

Question: And the MIC (C. freundii 87 [6])?
Answer: Its MIC is over 256 µg/mL.
